Data reported in the supplement of paper PMC10307832.

Assays:
Assay in all cases: relative viability (nuclei count vs DMSO), 5 days (fraction); higher = more cells survive
A-427 = tested on: A-427
Outline: (§1)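 One day after seeding in 1536-well plates, lung cancer cell lines were dosed by pin tool. Dosing was either single-drug or a fixed anchor-drug dose plus five library-drug doses (not always all listed) in √10 steps. After 5 days, nuclei were stained in one fix-and-stain step and counted on 4× images, and relative viability is the nuclei count of treated wells over that of vehicle wells, given as the median of duplicate plates.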

EKVX = tested on: EKVX
Outline: as §1

H3255 = tested on: H3255
Outline: as §1

LK-2 = tested on: LK-2
Outline: as §1

NCI-H1355 = tested on: NCI-H1355
Outline: as §1

NCI-H1666 = tested on: NCI-H1666
Outline: as §1

NCI-H1755 = tested on: NCI-H1755
Outline: as §1

NCI-H1944 = tested on: NCI-H1944
Outline: as §1

NCI-H2085 = tested on: NCI-H2085
Outline: as §1

NCI-H2228 = tested on: NCI-H2228
Outline: as §1

NCI-H2347 = tested on: NCI-H2347
Outline: as §1

NCI-H3122 = tested on: NCI-H3122
Outline: as §1

NCI-H322M = tested on: NCI-H322M
Outline: as §1

NCI-H358 = tested on: NCI-H358
Outline: as §1

NCI-H441 = tested on: NCI-H441
Outline: as §1

NCI-H460 = tested on: NCI-H460
Outline: as §1

NCI-H520 = tested on: NCI-H520
Outline: as §1

NCI-H596 = tested on: NCI-H596
Outline: as §1

NCI-H650 = tested on: NCI-H650
Outline: as §1

NCI-H838 = tested on: NCI-H838
Outline: as §1

SW 1573 = tested on: SW 1573
Outline: as §1

## O=C(O)CCCCC(CCSCc1ccccc1)SCc1ccccc1 (stereo not given) [CPI-613] + Cc1nc(NC(=O)N2CCC[C@H]2C(N)=O)sc1-c1ccnc(C(C)(C)C(F)(F)F)c1 [Alpelisib] (partner 2 µM)
A-427; first compound 5 µM
  relative viability: 1.02
A-427; first compound 15.81 µM
  relative viability: 1.06
A-427; first compound 50 µM
  relative viability: 1.01
A-427; first compound 158.11 µM
  relative viability: 0.985
A-427; first compound 500 µM
  relative viability: 0.857
EKVX; first compound 5 µM
  relative viability: 0.802
EKVX; first compound 15.81 µM
  relative viability: 0.814
EKVX; first compound 50 µM
  relative viability: 0.903
EKVX; first compound 158.11 µM
  relative viability: 0.857
EKVX; first compound 500 µM
  relative viability: 0.965
H3255; first compound 5 µM
  relative viability: 0.695
H3255; first compound 15.81 µM
  relative viability: 0.576
H3255; first compound 50 µM
  relative viability: 0.695
H3255; first compound 158.11 µM
  relative viability: 0.639
H3255; first compound 500 µM
  relative viability: 0.672
LK-2; first compound 5 µM
  relative viability: 1.01
LK-2; first compound 15.81 µM
  relative viability: 0.98
LK-2; first compound 50 µM
  relative viability: 1.06
LK-2; first compound 158.11 µM
  relative viability: 1.16
LK-2; first compound 500 µM
  relative viability: 0.82
NCI-H1355; first compound 5 µM
  relative viability: 0.834
NCI-H1355; first compound 15.81 µM
  relative viability: 0.813
NCI-H1355; first compound 50 µM
  relative viability: 0.918
NCI-H1355; first compound 158.11 µM
  relative viability: 0.413
NCI-H1355; first compound 500 µM
  relative viability: 0.134
NCI-H1666; first compound 5 µM
  relative viability: 0.935
NCI-H1666; first compound 15.81 µM
  relative viability: 0.896
NCI-H1666; first compound 50 µM
  relative viability: 1.27
NCI-H1666; first compound 158.11 µM
  relative viability: 0.158
NCI-H1666; first compound 500 µM
  relative viability: 0.138
NCI-H1755; first compound 5 µM
  relative viability: 0.91
NCI-H1755; first compound 15.81 µM
  relative viability: 0.89
NCI-H1755; first compound 50 µM
  relative viability: 0.837
NCI-H1755; first compound 158.11 µM
  relative viability: 0.769
NCI-H1755; first compound 500 µM
  relative viability: 0.251
NCI-H1944; first compound 5 µM
  relative viability: 0.841
NCI-H1944; first compound 15.81 µM
  relative viability: 0.843
NCI-H1944; first compound 50 µM
  relative viability: 0.778
NCI-H1944; first compound 158.11 µM
  relative viability: 0.803
NCI-H1944; first compound 500 µM
  relative viability: 0.743
NCI-H2085; first compound 5 µM
  relative viability: 1.01
NCI-H2085; first compound 15.81 µM
  relative viability: 0.927
NCI-H2085; first compound 50 µM
  relative viability: 0.906
NCI-H2085; first compound 158.11 µM
  relative viability: 0.591
NCI-H2085; first compound 500 µM
  relative viability: 0.242
NCI-H2228; first compound 5 µM
  relative viability: 0.799
NCI-H2228; first compound 15.81 µM
  relative viability: 0.6
NCI-H2228; first compound 50 µM
  relative viability: 0.547
NCI-H2228; first compound 158.11 µM
  relative viability: 0.344
NCI-H2228; first compound 500 µM
  relative viability: 0.0239
NCI-H2347; first compound 5 µM
  relative viability: 1.02
NCI-H2347; first compound 15.81 µM
  relative viability: 0.963
NCI-H2347; first compound 50 µM
  relative viability: 0.959
NCI-H2347; first compound 158.11 µM
  relative viability: 1.05
NCI-H2347; first compound 500 µM
  relative viability: 0.973
NCI-H3122; first compound 5 µM
  relative viability: 0.638
NCI-H3122; first compound 15.81 µM
  relative viability: 0.751
NCI-H3122; first compound 50 µM
  relative viability: 0.715
NCI-H3122; first compound 158.11 µM
  relative viability: 0.528
NCI-H3122; first compound 500 µM
  relative viability: 0.0415
NCI-H322M; first compound 5 µM
  relative viability: 0.746
NCI-H322M; first compound 15.81 µM
  relative viability: 0.721
NCI-H322M; first compound 50 µM
  relative viability: 0.729
NCI-H322M; first compound 158.11 µM
  relative viability: 0.416
NCI-H322M; first compound 500 µM
  relative viability: 0.757
NCI-H358; first compound 5 µM
  relative viability: 0.851
NCI-H358; first compound 15.81 µM
  relative viability: 0.742
NCI-H358; first compound 50 µM
  relative viability: 0.912
NCI-H358; first compound 158.11 µM
  relative viability: 0.261
NCI-H358; first compound 500 µM
  relative viability: 0.0364
NCI-H441; first compound 5 µM
  relative viability: 0.692
NCI-H441; first compound 15.81 µM
  relative viability: 1.01
NCI-H441; first compound 50 µM
  relative viability: 0.573
NCI-H441; first compound 158.11 µM
  relative viability: 0.216
NCI-H441; first compound 500 µM
  relative viability: 0.007
NCI-H460; first compound 5 µM
  relative viability: 0.426
NCI-H460; first compound 15.81 µM
  relative viability: 0.496
NCI-H460; first compound 50 µM
  relative viability: 0.433
NCI-H460; first compound 158.11 µM
  relative viability: 0.0466
NCI-H460; first compound 500 µM
  relative viability: 0.006
NCI-H520; first compound 5 µM
  relative viability: 0.731
NCI-H520; first compound 15.81 µM
  relative viability: 1.01
NCI-H520; first compound 50 µM
  relative viability: 0.845
NCI-H520; first compound 158.11 µM
  relative viability: 0.403
NCI-H520; first compound 500 µM
  relative viability: 0.112
NCI-H596; first compound 5 µM
  relative viability: 0.539
NCI-H596; first compound 15.81 µM
  relative viability: 0.496
NCI-H596; first compound 50 µM
  relative viability: 0.539
NCI-H596; first compound 158.11 µM
  relative viability: 0.473
NCI-H596; first compound 500 µM
  relative viability: 0.0181
NCI-H650; first compound 5 µM
  relative viability: 1.18
NCI-H650; first compound 15.81 µM
  relative viability: 1.06
NCI-H650; first compound 50 µM
  relative viability: 1.06
NCI-H650; first compound 158.11 µM
  relative viability: 0.931
NCI-H650; first compound 500 µM
  relative viability: 0.892
NCI-H838; first compound 5 µM
  relative viability: 0.979
NCI-H838; first compound 15.81 µM
  relative viability: 0.922
NCI-H838; first compound 50 µM
  relative viability: 0.91
NCI-H838; first compound 158.11 µM
  relative viability: 0.589
NCI-H838; first compound 500 µM
  relative viability: 0.0842
SW 1573; first compound 5 µM
  relative viability: 0.729
SW 1573; first compound 15.81 µM
  relative viability: 0.764
SW 1573; first compound 50 µM
  relative viability: 0.806
SW 1573; first compound 158.11 µM
  relative viability: 0.778
SW 1573; first compound 500 µM
  relative viability: 0.669
